Data on three compounds can be found in patent publication US12391685B2, “Inhibitors of RNA-guided nuclease target binding and uses thereof” (THE BROAD INSTITUTE, INC., priority 2018, dated 2025).

SMILES strings stand for the structures.

Format in all cases: binding, S. pyogenes
One assay has as its target T1, SpCas9:gRNA complex (Streptococcus pyogenes serotype M1, UniProt Q99ZW2).
T1 construct: made in house; host or cells: E. coli Rosetta (DE3)
As to the kind of experiment: Bio-layer interferometry (BLI), compound-SpCas9 interaction. The note with it: 1 μM biotinylated compound on streptavidin sensors, SpCas9:gRNA 0.15-1 μM; read-out: dissociation constant. Here is the method:
Compound-SpCas9 interaction in BLI. The experiments were performed in a 96-well format with 180 μL reaction volume using […] and streptavidin sensors. 1 μM of the biotinylated compound was loaded onto the sensors for 180 s in 20 mM Tris buffer (100 mM KCl, 5 mM MgCl2, 1 mM DTT, 0.01% Tween, pH 7.4). Compound-loaded sensors were then allowed to associate with different concentrations of the SpCas9:gRNA complex (0.15-1 μM) for 300 s, followed by dissociation in reaction buffer. The reference sensor was loaded with compound and allowed to associate and dissociate in reaction buffer alone. Response curves were fitted with a 2:1 stoichiometric model and a global fit steady-state analysis was performed using manufacturer's protocol. Experiments were performed in triplicate.
Competition experiments were performed using biotin-linker fragment. In this experiment, streptavidin sensors were pre-incubated with 10 μM of biotin-linker for 10 min before dipping into a solution of either 1 μM BRD7087-biotin or reaction buffer alone. Sensors were then allowed to associate with different concentration of SpCas9:gRNA complex (0.15-1 μM) or buffer alone.
For orientation: In BLI a coated tip is dipped into the sample, and binding shifts an interference pattern.

Assay [1] has as its target T2, SpCas9 (Streptococcus pyogenes serotype M1, UniProt Q99ZW2). The assay is described as follows: In vitro pulldown from WM793-SpCas9 cell lysate. Also on record: host or cells: U2OS.eGFP.PEST. The note with it: streptavidin magnetic beads, 12 h.
Assay [2] concerns the target T2, SpCas9. The assay is described as follows: In vitro pull-down assay with preformed SpCas9:gRNA complex. Also on record: made in house; host or cells: E. coli Rosetta (DE3). Here is the method:
In vitro pull-down assay. Pull-down of SpCas9 by biotinylated compound was performed by incubating a preformed SpCas9:gRNA complex with biotin-compound pre-loaded streptavidin magnetic beads. Initially, a 5 μM biotin compound was incubated with 120 μL streptavidin magnetic bead suspension for 30 min in 1× Cas9 activity buffer (20 mM Tris-HCl buffer, 150 mM KCl, 5 mM MgCl2, 1 mM DTT, pH 7.5). Next, beads were collected and washed with buffer twice and resuspended in 120 μL of 1× Cas9 activity buffer and distributed in 6 different tubes. A 0.3 μM of 480 μL of preformed SpCas9:gRNA complex were added to each tube along with the unlabeled BRD3433 compound (5 μM and 10 μM) in the competition experiment. The tubes were incubated at 4° C. for 12 h before collecting the beads and washed with 500 μL 1× Cas9 activity buffer. The beads were resuspended in 1× SDS gel loading buffer and denatured at 98° C. for 10 min. The samples were analyzed by electrophoresis followed by staining with Coomassie for 15 min before imaging.

T2 sequence (Q99ZW2 whole entry): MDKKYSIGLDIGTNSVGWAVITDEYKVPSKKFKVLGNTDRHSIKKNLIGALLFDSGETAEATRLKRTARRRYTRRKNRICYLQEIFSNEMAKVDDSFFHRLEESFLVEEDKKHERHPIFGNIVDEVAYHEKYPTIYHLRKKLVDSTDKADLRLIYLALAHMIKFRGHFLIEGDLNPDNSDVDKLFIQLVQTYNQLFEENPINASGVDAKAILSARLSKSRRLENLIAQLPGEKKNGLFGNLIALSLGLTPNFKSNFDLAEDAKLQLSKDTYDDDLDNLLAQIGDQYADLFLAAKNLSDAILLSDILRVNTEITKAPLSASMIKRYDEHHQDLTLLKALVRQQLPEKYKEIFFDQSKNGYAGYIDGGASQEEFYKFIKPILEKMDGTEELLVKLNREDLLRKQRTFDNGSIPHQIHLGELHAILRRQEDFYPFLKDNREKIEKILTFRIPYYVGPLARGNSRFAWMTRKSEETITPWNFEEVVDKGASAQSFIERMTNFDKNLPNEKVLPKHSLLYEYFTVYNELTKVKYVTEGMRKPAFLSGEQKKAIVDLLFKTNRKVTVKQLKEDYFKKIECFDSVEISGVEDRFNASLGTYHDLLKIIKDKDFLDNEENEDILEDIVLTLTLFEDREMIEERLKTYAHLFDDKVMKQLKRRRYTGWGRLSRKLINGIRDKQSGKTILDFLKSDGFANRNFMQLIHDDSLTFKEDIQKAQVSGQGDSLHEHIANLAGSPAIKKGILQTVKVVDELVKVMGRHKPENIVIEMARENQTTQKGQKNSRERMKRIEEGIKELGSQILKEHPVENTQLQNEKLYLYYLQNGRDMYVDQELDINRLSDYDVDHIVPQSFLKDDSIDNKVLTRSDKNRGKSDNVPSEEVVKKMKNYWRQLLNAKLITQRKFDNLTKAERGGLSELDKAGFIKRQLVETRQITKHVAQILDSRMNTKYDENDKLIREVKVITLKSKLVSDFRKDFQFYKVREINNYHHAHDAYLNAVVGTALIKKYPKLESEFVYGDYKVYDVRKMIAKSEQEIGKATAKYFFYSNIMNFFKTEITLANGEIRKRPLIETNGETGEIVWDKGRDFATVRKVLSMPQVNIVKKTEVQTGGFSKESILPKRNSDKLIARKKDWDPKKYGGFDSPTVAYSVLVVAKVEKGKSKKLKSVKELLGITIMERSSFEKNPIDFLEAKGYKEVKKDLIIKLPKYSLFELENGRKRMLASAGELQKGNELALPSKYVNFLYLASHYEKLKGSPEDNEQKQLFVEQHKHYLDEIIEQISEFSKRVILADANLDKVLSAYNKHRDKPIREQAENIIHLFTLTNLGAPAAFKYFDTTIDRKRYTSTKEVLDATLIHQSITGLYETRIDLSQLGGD
T1 sequence (Q99ZW2 whole entry, one chain of several): as the sequence (Q99ZW2 whole entry) above

Regarding `O=C(CCCC[C@@H]1SC[C@@H]2NC(=O)N[C@@H]21)NCCOCCOCCOCCC(=O)Nc1cccc(-c2ccc3c(c2)[C@H]2[C@H](CCN2Cc2ccncc2)[C@@H](CO)N3)c1` [BRD3539, N-(2-(2-(2-(3-((3-((3aR,4S,9bR)-4-(Hydroxymethyl)-1-(pyridin-4-ylmethyl)-2,3,3a,4,5,9b-hexahydro-1H-pyrrolo[3,2-c]quinolin-8-yl)phenyl)amino)-3-oxopropoxy)ethoxy)ethoxy)ethyl)-5-((3aS,4S,6aR)-2-oxohexahydro-1H-thieno[3,4-d]imidazol-4-yl) pentanamide], at SpCas9:gRNA complex, the Kd was found to be 700 nM. Consider `Cc1ccc(S(=O)(=O)N2CC[C@@H]3[C@H](CNC(=O)CCOCCOCCOCCNC(=O)CCCC[C@@H]4SC[C@@H]5NC(=O)N[C@@H]54)Nc4ccc(-c5ccccc5F)cc4[C@@H]32)cc1` [biotinylated BRD0539, N-(1-((3aR,4R,9bR)-8-(2-fluorophenyl)-1-tosyl-2,3,3a,4,5,9b-hexahydro-1H-pyrrolo[3,2-c]quinolin-4-yl)-3-oxo-6,9,12-trioxa-2-azatetradecan-14-yl)-5-((3aS,4S,6aR)-2-oxohexahydro-1H-thieno[3,4-d]imidazol-4-yl) pentanamide], for which, on SpCas9 [1], the “pulldown of SpCas9 from WM793-SpCas9 cell lysate” value was “able to pulldown SpCas9”. On to `COc1cccc(-c2ccc3c(c2)[C@H]2[C@H](CCN2C(=O)Cc2ccncc2)[C@H](CNC(=O)CCOCCOCCOCCNC(=O)CCCC[C@@H]2SC[C@@H]4NC(=O)N[C@@H]42)N3C)c1` [biotinylated BRD3433, N-(1-((3aS,4R,9bR)-8-(3-methoxyphenyl)-5-methyl-1-(2-(pyridin-4-yl)acetyl)-2,3,3a,4,5,9b-hexahydro-1H-pyrrolo[3,2-c]quinolin-4-yl)-3-oxo-6,9,12-trioxa-2-azatetradecan-14-yl)-5-((3aS,4S,6aR)-2-oxohexahydro-1H-thieno[3,4-d]imidazol-4-y1) pentanamide], for which, at SpCas9 [2], the “pull-down of SpCas9 (gel electrophoresis)” value is listed as “enrichment of SpCas9 in the eluent”.
